According to publication PMC10154249, “Unique progerin C-terminal peptide ameliorates Hutchinson–Gilford progeria syndrome phenotype by rescuing BUBR1” (Nature Aging, 2023):
“Also recorded” adds a separate entry of the source.

What was measured:
[1] = test system: BUBR1 in NIH-3T3-progerin cells; test: Western blot of BUBR1 in progerin-expressing NIH-3T3 cells; assay type: cell-based
Experimental: (§1) Western blot was performed as previously described. Cells were lysed in 1× Laemmli sample buffer after washing twice in cold PBS without calcium and magnesium. Protein concentrations were determined using the bicinchoninic acid (BCA) protein assay. Protein lysates were subjected to SDS–PAGE, transferred to 0.45-μm pore size hydrophobic PVDF transfer membrane (Merck Millipore), detected with the appropriate primary antibodies coupled with horseradish peroxidase-conjugated corresponding secondary antibodies, and visualized using enhanced chemiluminescence ECL reagent (GE Healthcare). The Tanon 5500 high-definition low-illumination CCD system (Tanon FLI Capture v.1.02) was used to capture chemiluminescent signals.

[2] = test system: progerin–PTBP1 interaction; test: CoIP of progerin and PTBP1 in HEK-293T cells; assay type: cell-based; conditions: CoIP in HEK-293T; HGPS cells
Experimental: (§2) Detailed descriptions of CoIP were described previously[55],[56]. Cells were harvested and washed three times in cold PBS, then lysed in CoIP buffer (25 mM Tris-HCl (pH 7.5), 150 mM KCl, 5 mM EDTA, and 0.5% NP-40) plus protease inhibitor cocktail tablet (Roche). Incubate on ice and shock lysates on the vortex shaker 15 times for 30 s each. Microcentrifuge in 12,000g for 15 min at 4 °C, collect the supernatant, and incubate with 3 μg primary antibodies with gentle shaking overnight at 4 °C, followed by adding 20–40 μl Pure Proteome Protein A/G Mix Magnetic Beads (Millipore, catalog no. […]02) for 3 h. Wash the beads three times with 1 ml CoIP buffer for 8 min each, resuspend in 50 μl 1× loading buffer, and incubate at 100 °C for 8 min. Throw beads away and analyze by immunoblotting.

IMR90 cells = test: CCK8 cell viability of IMR90 cells; assay type: cell-based, human; conditions: CCK8, UPCP 0, 10, 20, 30 μM, 0–72 h (also Ki67, CyclinA2, survival rate)
Experimental: Cell viability was assessed using the Cell Counting Kit-8 (CCK8) (APE, catalog no. k1018). The cells were plated in triplicate in 96-well plates (typically 10,000 cells per 100 μl per well) and were incubated with fresh medium for 24 h. Then, the cells were incubated with different concentrations (0 μM, 10 μM, 20 μM, 30 μM) of UPCP for 0 h, 24 h, 48 h or 72 h. CCK8 solution (10 μl) was added to the well for a 2 h incubation at 37 °C. Absorbance was measured at 450 nm with a 96-well plate reader (Tecan Infinite M NANO^+). Data were analyzed and further processed in i-control v.2.0 and GraphPad Prism v.7.

[3] = test system: progerin–BUBR1 interaction; test: CoIP of progerin and BUBR1 in HEK-293T cells; assay type: cell-based; conditions: HEK-293T, Flag-progerin, UPCP 6 μM, 12 μM and 18 μM
Experimental: as §2

[4] = test system: BUBR1 / CyclinA2 in HGADFN003 cells; test: Western blot of BUBR1 and CyclinA2 in HGADFN003 cells; assay type: cell-based, human
Experimental: as §1

HGADFN003 cells = test: CyclinA2 immunofluorescence of HGADFN003 cells; assay type: cell-based, human
Experimental: Immunofluorescence was performed as described previously. Cells were plated on cover slips in 12-well plates, left overnight before the treatment. Cells were fixed in 1% formaldehyde in culture medium for 10 min at 37 °C and permeabilized with 0.2% Triton X-100 in PBS for 10 min at room temperature. Cells were washed twice in PBS and blocked for 1 h with 5% BSA in PBS and then incubated with primary antibodies at 4 °C overnight, washed three times in PBS and incubated with secondary antibodies for 1 h at room temperature. Cell nuclei were counterstained with a 500 nM concentration of 4,6-diamidino-2-phenylindole (DAPI) (Sigma). Images were acquired by a fluorescence microscope (OLYMPUS FV-1000, Carl Zeiss LSM880 or Leica DMi8) and analyzed with software NIS-Elements AR v.5.0.1 (Nikon), FLUOVIEW v.4.2b (OLYMPUS), ZEN v.2.3 SP1 (Carl Zeiss) and Leica Application Suite X v.3.6.0.24 (Leica). Cells were quantified by investigators who were blinded to the identity of the analyzed cell.

Substance: H-YGRKKRRQRRRYNLRSRTVLCGTCGQPADKASASGSGAQSPQNCSIM-OH (cysteines drawn unpaired) [UPCP, unique progerin C-terminal peptide]
- BUBR1 abundance [1]: upregulated BUBR1
- interaction of PTBP1 and progerin [2]: weakened the interaction of PTBP1 and progerin
- effect on proliferation of normal cells (IMR90 cells): had little effect on proliferation of IMR90 cells; also recorded: no obvious effect on the proliferation of normal cells
- interaction between progerin and BUBR1 [3]: interfered with the interaction between progerin and BUBR1
- BUBR1 expression (FTI-277/UPCP comparison, words) ([4]; HGADFN003): increasing expression of BUBR1
- CyclinA2 expression (FTI-277/UPCP comparison, words) ([4]; HGADFN003): increasing expression of BUBR1, CyclinA2
- BUBR1 abundance ([4]; HGADFN003 cells, UPCP 0–10 μM, Western blot): upregulated BUBR1
- CyclinA2 positive cells (HGADFN003 cells; HGADFN003, 2h, replicate 1): 25%
- CyclinA2 positive cells (HGADFN003 cells; HGADFN003, 2h, replicate 2): 35.7143%
- CyclinA2 positive cells (HGADFN003 cells; HGADFN003, 2h, replicate 3): 33.3333%
- CyclinA2 positive cells (HGADFN003 cells; HGADFN003, 4h, replicate 1): 42.8571%
- CyclinA2 positive cells (HGADFN003 cells; HGADFN003, 4h, replicate 2): 43.4783%
- CyclinA2 positive cells (HGADFN003 cells; HGADFN003, 4h, replicate 3): 31.8182%
- CyclinA2 positive cells (HGADFN003 cells; HGADFN003, 6h, replicate 1): 35.2941%
- CyclinA2 positive cells (HGADFN003 cells; HGADFN003, 6h, replicate 2): 33.3333%
- CyclinA2 positive cells (HGADFN003 cells; HGADFN003, 6h, replicate 3): 45.8333%
- CyclinA2 positive cells (HGADFN003 cells; HGADFN003, 24h, replicate 1): 42.3077%
- CyclinA2 positive cells (HGADFN003 cells; HGADFN003, 24h, replicate 2): 41.1765%
- CyclinA2 positive cells (HGADFN003 cells; HGADFN003, 24h, replicate 3): 48.5714%
- CyclinA2 positive cells (HGADFN003 cells; HGADFN003, 48h, replicate 1): 59.0909%
- CyclinA2 positive cells (HGADFN003 cells; HGADFN003, 48h, replicate 2): 58.3333%
- CyclinA2 positive cells (HGADFN003 cells; HGADFN003, 48h, replicate 3): 56.7568%
- level of CyclinA2 (HGADFN003 cells; HGPS cells): increased level of CyclinA2
